Data: article PMC10974018, “The Development and Characterization of Novel Ionic Liquids Based on Mono- and Dicarboxylates with Meglumine for Drug Solubilizers and Skin Permeation Enhancers” (Pharmaceutics, 2024)

Assays:
[1] = cited from earlier work
[2] = cited from earlier work; remark: listed apart in the source
[3] = Solubility capability of drug-in-IL (organic acid/MGM ionic liquids), confirmed by PXRD; type: physicochemical; conditions: for upper limit of drug dissolution in IL: in GA-MGM 1:1, PXRD
Experimental: […] Next, 1, 10, 20… w/w% of each drug and water and ethanol as the solvent was added to the MGM and organic acid solution, and then the preparation was sonicated to be completely dissolved. The resulting solution was evaporated using a thermostat at 65 °C and then vacuum-dried at 40 °C for 24 h.
The solubilization power of ILs is attributed to a range of interactions, such as ionic, van der Waals, π–π, and hydrogen bonding. […] To determine the solubility capability of the ILs, drug-in-IL complexes were prepared. Subsequently, these complexes were analyzed via PXRD to confirm dissolution. PXRD is a technique used to validate the crystalline structure of a drug or excipients in a preparation. The absence of a drug’s crystal form in PXRD indicates the complete solubilization of the drug in the IL.

[4] = as above; type: physicochemical; conditions: for upper limit of drug dissolution in IL: PXRD

| Compound | Log P [1] | pKa [2] | other results |
| --- | --- | --- | --- |
| Oc1ncnc2[nH]ncc12 [Allopurinol (ALP), Allopurinol] | −1.80 | 9.34 | – |
| O=C(O)CCCCCCCC(=O)O [Azelaic acid (AA), Azelaic acid] | 1.57 | 4.55 | – |
| C[C@H](CS)C(=O)N1CCC[C@H]1C(=O)O [Captopril (CPP), Captopril] | – | 3.64 | upper limit of drug dissolution in IL [3]: ≥ 20%; upper limit of drug dissolution in IL ([4]; in AA-MGM 1:2): greater than 10%; upper limit of drug dissolution in IL ([4]; in TA-MGM 1:2): 80% |
| COc1ccccc1OCCNCC(O)COc1cccc2[nH]c3ccccc3c12 (centres unmarked) [Carvedilol (CVD), Carvedilol] | 4.19 | – | – |
| COC1=C(OC)C(=O)C(C/C=C(\C)CC/C=C(\C)CC/C=C(\C)CC/C=C(\C)CC/C=C(\C)CC/C=C(\C)CC/C=C(\C)CC/C=C(\C)CC/C=C(\C)CCC=C(C)C)=C(C)C1=O [Coenzyme Q10 (CoQ10), Coenzyme Q10] | 9.94 | 10.9 | upper limit of drug dissolution in IL ([4]; in AA-MGM 1:2): greater than 10% |
| CC(C)N(CCC(C(N)=O)(c1ccccc1)c1ccccn1)C(C)C (centres unmarked) [Disopyramide (DPA), Disopyramide] | – | – | solubility in ILs ([3]; all ILs (TA/MGM, AA/MGM, GA/MGM, CPA/MGM)): 100% |
| CCOc1ccccc1C(N)=O [Ethenzamide (ETZ), Ethenzamide] | 1.02 | 13.7 | – |
| COc1cc(/C=C/C(=O)O)ccc1O [Ferulic acid (FA), Ferulic acid] | – | 4.58 | – |
| CC(C(=O)O)c1ccc(-c2ccccc2)c(F)c1 (centres unmarked) [Flurbiprofen (FRP), Flurbiprofen] | – | 3.78 | upper limit of drug dissolution in IL [3]: ≥ 20%; upper limit of drug dissolution in IL ([4]; in AA-MGM 1:2): greater than 10%; upper limit of drug dissolution in IL ([4]; in TA-MGM 1:2): 10% |
| CC(C)=CCC/C(C)=C/C(=O)O [Geranic acid (GA), Geranic acid] | 3.07 | 5.26 | – |
| O=[N+]([O-])O[C@@H]1CO[C@H]2[C@@H]1OC[C@@H]2O [Isosorbide mononitrate (ISMN), Isosorbide mononitrate] | −0.15 | – | upper limit of drug dissolution in IL [3]: ≥ 20%; dissolution of drug in IL by PXRD (drug-derived crystal peaks) ([4]; 5% and 10% drug in TA-MGM 1:2): cannot be completely dissolved; upper limit of drug dissolution in IL ([4]; in AA-MGM 1:2): greater than 10% |
| CNC[C@H](O)[C@@H](O)[C@H](O)[C@H](O)CO [Meglumine (MGM), Meglumine] | – | 9.52 | – |
| CC1COc2c(N3CCN(C)CC3)c(F)cc3c(=O)c(C(=O)O)cn1c23 (centres unmarked) [Ofloxacin (OFLX), Ofloxacin] | −0.48 | – | pKa1 [2]: 5.97; pKa2 [2]: 9.28 |
| C[C@@H]1O[C@@H](OC[C@H]2O[C@@H](Oc3c(-c4ccc(O)c(O)c4)oc4cc(O)cc(O)c4c3=O)[C@H](O)[C@@H](O)[C@@H]2O)[C@H](O)[C@H](O)[C@H]1O [Rutin] | −1.33 | 6.43 | upper limit of drug dissolution in IL [3]: ≥ 20%; upper limit of drug dissolution in IL ([4]; in AA-MGM 1:2): greater than 10% |
| O=C(O)C(O)C(O)C(=O)O (centres unmarked) [Tartaric acid (TA), Tartaric acid] | −1.8 | – | – |
| Curcumin [Curcumin (CCM)] | – | 8.09 | – |
| Minoxidil [Minoxidil (MXD)] | 1.24 | 4.61 | – |
